# Data published in PMC4503722, “Novel Phenotypic Outcomes Identified for a Public Collection of Approved Drugs from a Publicly Accessible Panel of Assays” (PLoS ONE, 2015).
# Read-outs that look alike come from different tables or passages of the source.
# Columns and labels:
# hKDR = target: T1, hKDR (Homo sapiens, UniProt P35968); assay: Cerep LANCE kinase assay hKDR (S1 assay 32); type: biochemical
# T1 construct: purchased Cerep (LANCE kinase assay platform, contract assay)
# Colo320 = assay: cells; type: cell-based; details: basal
# SNU-C1 = assay: cells; type: cell-based; details: basal
# HCT116 = assay: cells; type: cell-based; details: basal
# HT-29 = assay: cells; type: cell-based; details: basal
# [1] = system: nuclear β-catenin in C2C12 cells; assay: cells; type: cell-based; details: concentration response
# SW480 = assay: cells; type: cell-based; details: basal
# [2] = system: HCT116 cells treated with a GSK3β inhibitor; assay: cells; type: cell-based; details: assay number 26; GSK3b inhibitor pretreated
# INS-1E cells [3] = assay: cells; type: cell-based, rat
# hGSK3b = target: T2, hGSK3b (Homo sapiens, UniProt P49841); assay: Cerep LANCE kinase assay hGSK3b (S1 assay 34); type: biochemical
# T2 construct: purchased Cerep (LANCE kinase assay platform, contract assay)
# DLD-1 = assay: cells; type: cell-based; details: basal
# STC-1 cell line = type: cell-based, mouse
# hJAK2 = target: T3, hJAK2 (Homo sapiens, UniProt O60674); assay: Cerep LANCE kinase assay hJAK2 (S1 assay 33); type: biochemical
# T3 construct: purchased Cerep (LANCE kinase assay platform, contract assay)
# HeLa cells = assay: cells; type: cell-based
# [4] = system: ECFC/ADSC co-culture cell nuclei number
# [5] = system: endothelial tube formation in co-cultures of ECFCs and ADSCs treated with VEGF; assay: cells; type: cell-based, human
# hp70S6K1 (RPS6KB1) = target: T4, hp70S6K1 (RPS6KB1) (Homo sapiens, UniProt P23443); assay: Cerep LANCE kinase assay hp70S6K1 (S1 assay 31); type: biochemical
# T4 construct: purchased Cerep (LANCE kinase assay platform, contract assay)
# NCI-H716 cells = assay: cells; type: cell-based, Human
# [6] = system: alkaline phosphatase (ALP) activity in C2C12 cells; type: cell-based; details: concentration response
# hFLT3 = target: T5, hFLT3 (Homo sapiens, UniProt P36888); assay: Cerep LANCE kinase assay hFLT3 (S1 assay 35); type: biochemical
# T5 construct: purchased Cerep (LANCE kinase assay platform, contract assay)
# INS-1E cells [7] = type: cell-based, rat
# RKO = assay: cells; type: cell-based; details: basal
# 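Wherever 5mMGluc INS1E SecretionMod IC50/EC50 is given: secreted insulin quantified by homogeneous immunoassay.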
# 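Wherever IC50/EC50, 5mMGluc INS1E SecretionMod (assay number 8) is given: secreted insulin quantified by homogeneous immunoassay.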
# T4 sequence (P23443 whole entry): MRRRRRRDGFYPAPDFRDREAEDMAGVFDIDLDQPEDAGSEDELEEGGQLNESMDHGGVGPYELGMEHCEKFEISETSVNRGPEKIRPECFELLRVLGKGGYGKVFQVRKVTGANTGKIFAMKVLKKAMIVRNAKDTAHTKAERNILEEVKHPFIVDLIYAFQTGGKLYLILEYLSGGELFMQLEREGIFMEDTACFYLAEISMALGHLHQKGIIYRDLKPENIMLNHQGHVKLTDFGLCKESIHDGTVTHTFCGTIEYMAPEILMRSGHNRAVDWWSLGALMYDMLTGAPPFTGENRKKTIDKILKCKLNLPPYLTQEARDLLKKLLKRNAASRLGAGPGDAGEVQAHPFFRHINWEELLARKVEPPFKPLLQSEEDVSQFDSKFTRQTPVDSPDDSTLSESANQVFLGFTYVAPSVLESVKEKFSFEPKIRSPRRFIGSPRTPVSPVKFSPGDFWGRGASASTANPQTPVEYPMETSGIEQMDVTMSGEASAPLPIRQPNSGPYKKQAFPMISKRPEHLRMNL
# T1 sequence (P35968 20-1356): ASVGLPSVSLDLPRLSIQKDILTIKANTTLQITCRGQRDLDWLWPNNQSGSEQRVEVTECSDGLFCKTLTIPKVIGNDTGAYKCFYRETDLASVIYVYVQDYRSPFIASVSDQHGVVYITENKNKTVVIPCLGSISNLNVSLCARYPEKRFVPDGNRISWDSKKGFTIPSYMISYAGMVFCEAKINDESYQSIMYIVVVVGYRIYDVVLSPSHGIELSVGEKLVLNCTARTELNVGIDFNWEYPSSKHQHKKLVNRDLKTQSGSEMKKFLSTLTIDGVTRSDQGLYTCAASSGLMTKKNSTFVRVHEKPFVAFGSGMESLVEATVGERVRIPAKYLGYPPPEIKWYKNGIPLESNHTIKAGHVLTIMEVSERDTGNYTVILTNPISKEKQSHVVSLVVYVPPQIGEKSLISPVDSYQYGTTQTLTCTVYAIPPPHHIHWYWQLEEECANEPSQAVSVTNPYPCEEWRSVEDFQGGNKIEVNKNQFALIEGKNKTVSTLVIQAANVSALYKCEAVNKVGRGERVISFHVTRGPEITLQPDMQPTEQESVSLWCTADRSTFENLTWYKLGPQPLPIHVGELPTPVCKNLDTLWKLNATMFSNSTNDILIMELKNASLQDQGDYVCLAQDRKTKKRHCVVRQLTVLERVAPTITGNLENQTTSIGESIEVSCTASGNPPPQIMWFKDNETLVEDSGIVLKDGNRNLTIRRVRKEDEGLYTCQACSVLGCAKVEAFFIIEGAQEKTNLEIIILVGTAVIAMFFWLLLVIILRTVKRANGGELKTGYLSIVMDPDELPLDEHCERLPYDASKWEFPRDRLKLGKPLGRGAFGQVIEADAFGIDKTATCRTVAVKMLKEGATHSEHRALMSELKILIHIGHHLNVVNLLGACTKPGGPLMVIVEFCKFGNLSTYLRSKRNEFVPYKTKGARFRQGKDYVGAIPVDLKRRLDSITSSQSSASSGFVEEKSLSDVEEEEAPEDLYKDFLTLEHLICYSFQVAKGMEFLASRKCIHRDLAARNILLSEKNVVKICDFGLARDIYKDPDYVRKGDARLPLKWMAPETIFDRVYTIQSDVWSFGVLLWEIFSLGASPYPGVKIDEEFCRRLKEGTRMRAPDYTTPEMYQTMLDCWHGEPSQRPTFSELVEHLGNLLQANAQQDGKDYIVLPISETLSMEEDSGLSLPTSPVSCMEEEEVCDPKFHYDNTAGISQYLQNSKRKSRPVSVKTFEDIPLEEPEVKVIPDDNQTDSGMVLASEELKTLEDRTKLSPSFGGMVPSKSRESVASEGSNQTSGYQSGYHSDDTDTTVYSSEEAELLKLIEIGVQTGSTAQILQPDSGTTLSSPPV
# T2 sequence (P49841 whole entry): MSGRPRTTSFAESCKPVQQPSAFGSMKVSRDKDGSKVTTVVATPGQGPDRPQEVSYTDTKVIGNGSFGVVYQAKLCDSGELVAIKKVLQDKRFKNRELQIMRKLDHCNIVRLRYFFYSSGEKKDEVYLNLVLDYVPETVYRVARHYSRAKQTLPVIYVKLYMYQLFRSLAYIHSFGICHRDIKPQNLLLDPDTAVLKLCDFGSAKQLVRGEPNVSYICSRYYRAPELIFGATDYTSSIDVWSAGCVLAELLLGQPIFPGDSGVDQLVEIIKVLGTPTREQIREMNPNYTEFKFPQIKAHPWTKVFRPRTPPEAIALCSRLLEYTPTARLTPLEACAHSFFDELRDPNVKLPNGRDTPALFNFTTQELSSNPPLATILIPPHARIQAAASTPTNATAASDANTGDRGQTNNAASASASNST
# T3 sequence (O60674 whole entry): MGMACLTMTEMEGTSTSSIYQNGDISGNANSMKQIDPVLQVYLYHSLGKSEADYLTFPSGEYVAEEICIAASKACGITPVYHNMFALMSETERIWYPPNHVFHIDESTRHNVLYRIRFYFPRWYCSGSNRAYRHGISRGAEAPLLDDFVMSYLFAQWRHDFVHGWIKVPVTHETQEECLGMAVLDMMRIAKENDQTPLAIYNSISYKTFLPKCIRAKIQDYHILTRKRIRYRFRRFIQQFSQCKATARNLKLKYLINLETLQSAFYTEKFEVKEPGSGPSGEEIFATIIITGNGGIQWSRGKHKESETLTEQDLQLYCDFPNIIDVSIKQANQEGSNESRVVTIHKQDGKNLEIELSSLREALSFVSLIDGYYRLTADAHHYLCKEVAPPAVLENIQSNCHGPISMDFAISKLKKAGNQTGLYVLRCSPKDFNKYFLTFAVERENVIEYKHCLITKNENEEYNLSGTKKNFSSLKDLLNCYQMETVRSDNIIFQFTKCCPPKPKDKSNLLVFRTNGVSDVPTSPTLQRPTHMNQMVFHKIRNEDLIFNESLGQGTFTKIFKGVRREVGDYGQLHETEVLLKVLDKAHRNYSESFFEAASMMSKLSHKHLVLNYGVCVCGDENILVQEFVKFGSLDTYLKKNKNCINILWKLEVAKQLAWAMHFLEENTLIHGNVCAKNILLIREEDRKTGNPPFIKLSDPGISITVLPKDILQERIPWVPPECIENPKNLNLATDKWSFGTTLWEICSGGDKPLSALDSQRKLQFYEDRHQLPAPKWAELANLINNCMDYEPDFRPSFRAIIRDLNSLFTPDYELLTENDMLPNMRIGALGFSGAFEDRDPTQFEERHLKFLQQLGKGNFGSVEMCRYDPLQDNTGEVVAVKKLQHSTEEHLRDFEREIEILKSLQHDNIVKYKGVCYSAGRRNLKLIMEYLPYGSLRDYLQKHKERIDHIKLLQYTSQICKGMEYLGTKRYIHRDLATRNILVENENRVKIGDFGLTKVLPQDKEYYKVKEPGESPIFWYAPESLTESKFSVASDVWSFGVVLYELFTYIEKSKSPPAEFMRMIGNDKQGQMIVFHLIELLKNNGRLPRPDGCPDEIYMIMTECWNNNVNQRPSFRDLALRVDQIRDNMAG
# T5 sequence (P36888 27-993): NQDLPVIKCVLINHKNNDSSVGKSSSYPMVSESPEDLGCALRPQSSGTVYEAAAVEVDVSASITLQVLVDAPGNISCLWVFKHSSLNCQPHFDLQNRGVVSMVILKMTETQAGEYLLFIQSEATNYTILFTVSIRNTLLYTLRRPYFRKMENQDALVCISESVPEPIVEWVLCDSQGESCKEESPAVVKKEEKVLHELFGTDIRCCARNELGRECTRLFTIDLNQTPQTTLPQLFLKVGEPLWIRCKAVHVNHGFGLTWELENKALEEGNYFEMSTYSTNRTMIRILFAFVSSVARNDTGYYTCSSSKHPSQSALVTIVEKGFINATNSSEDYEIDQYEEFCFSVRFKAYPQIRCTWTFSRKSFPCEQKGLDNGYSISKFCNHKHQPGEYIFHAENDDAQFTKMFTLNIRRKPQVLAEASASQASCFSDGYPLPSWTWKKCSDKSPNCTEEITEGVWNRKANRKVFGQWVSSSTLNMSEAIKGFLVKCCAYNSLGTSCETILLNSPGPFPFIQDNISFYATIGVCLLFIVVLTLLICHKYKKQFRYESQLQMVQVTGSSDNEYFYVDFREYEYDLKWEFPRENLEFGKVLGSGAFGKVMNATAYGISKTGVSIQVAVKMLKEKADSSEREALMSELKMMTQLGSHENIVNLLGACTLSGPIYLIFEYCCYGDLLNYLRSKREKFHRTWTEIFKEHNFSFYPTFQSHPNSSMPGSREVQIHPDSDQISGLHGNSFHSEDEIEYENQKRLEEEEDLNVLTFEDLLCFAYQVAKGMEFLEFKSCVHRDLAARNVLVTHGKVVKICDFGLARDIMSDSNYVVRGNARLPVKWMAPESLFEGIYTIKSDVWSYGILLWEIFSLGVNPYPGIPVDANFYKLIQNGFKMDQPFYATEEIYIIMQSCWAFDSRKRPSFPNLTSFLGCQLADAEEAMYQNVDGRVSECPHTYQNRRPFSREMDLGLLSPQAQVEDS
compound,measurement,setting,value
Cc1ccc([N+](=O)[O-])[c]2c1[O][Hg]2 [NCGC00249897-01],hKDR LANCE IC50/EC50,hKDR; assay number 32,16.8 µM
same,Basal_Viability ATP Colo 320 IC50/EC50,Colo320; assay number 27,0.935 µM
same,Basal_Viability ATP SNU-C1 IC50/EC50,SNU-C1; assay number 30,0.2022 µM
same,Basal_Viability ATP HCT116 IC50/EC50,HCT116; assay number 25,2.8299 µM
same,Basal_Viability ATP HT-29 IC50/EC50,HT-29; assay number 28,1.4429 µM
same,WntCondMedia_bCatenin C2C12 IC50/EC50,[1]; assay number 5,1.5133 µM
same,Basal_Viability ATP SW480 IC50/EC50,SW480; assay number 24,1.1294 µM
same,GSK3b inh pretreated_Viability ATP HCT116 IC50/EC50,[2],> 2.2222 µM
same,5mMGluc_INS1E SecretionMod IC50/EC50,"INS-1E cells [3]; assay number 8, 5 mM glucose",> 33.33 µM
same,hGSK3b LANCE IC50/EC50,hGSK3b; assay number 34,8.37 µM
same,Basal_Viability ATP DLD-1 IC50/EC50,DLD-1; assay number 23,1.6221 µM
same,mSTC-1 GLP1 Secretion IC50/EC50,STC-1 cell line; assay number 13,0.0972 µM
same,hJAK2 LANCE IC50/EC50,hJAK2; assay number 33,> 20 µM
same,Hela CellCycMod PI 2N IC50/EC50,"HeLa cells; assay number 14, 2N",> 10 µM
same,Hela CellCycMod PI 4N IC50/EC50,"HeLa cells; assay number 16, 4N",> 10 µM
same,Hela CellCycMod PI MI IC50/EC50,"HeLa cells; assay number 17, MI",1.2179 µM
same,Hela CellCycMod PI Cell Number IC50/EC50,"HeLa cells; assay number 18, cell number",0.3851 µM
same,VEGF_ADSC\ECFC Angio Hoechst NucArea IC50/EC50,[4],1.087 µM
same,VEGF_ADSC\ECFC Angio CD31 TubeArea IC50/EC50,[5],0.6678 µM
same,hp70S6K1 LANCE IC50/EC50,hp70S6K1 (RPS6KB1); assay number 31,> 20 µM
same,hNCI-H716 GLP1 Secretion IC50/EC50,NCI-H716 cells; assay number 12,9.871 µM
same,WntCondMedia_Alk Phos C2C12 IC50/EC50,[6]; assay number 6,0.1552 µM
same,hFLT3 LANCE IC50/EC50,hFLT3; assay number 35,10.38 µM
Cl.Nc1c2c(nc3c1CCC3)CCCC2.O [NCGC00263455-01],0.1mMGluc_INS1E SecretionMod Act IC50/EC50,"INS-1E cells [7]; assay number 9, 0.1 mM glucose",> 33.33 µM
same,5mMGluc_INS1E SecretionMod IC50/EC50,"INS-1E cells [3]; assay number 8, 5 mM glucose",11.7012 µM
C#CCOC(C(=O)OCCN(C)C)(c1ccccc1)c1ccccc1 [NCGC00164558-02],0.1mMGluc_INS1E SecretionMod Act IC50/EC50,"INS-1E cells [7]; assay number 9, 0.1 mM glucose",9.666 µM
same,5mMGluc_INS1E SecretionMod IC50/EC50,"INS-1E cells [3]; assay number 8, 5 mM glucose",9.257 µM
CCN(CC)CCNC(C(=O)OCCC(C)C)c1ccccc1 (stereo not shown) [NCGC00164526-02],0.1mMGluc_INS1E SecretionMod Act IC50/EC50,"INS-1E cells [7]; assay number 9, 0.1 mM glucose",> 33.33 µM
same,5mMGluc_INS1E SecretionMod IC50/EC50,"INS-1E cells [3]; assay number 8, 5 mM glucose",24.7717 µM
Cl.NCC1CCC(C(=O)Oc2ccc(CCC(=O)O)cc2)CC1 (stereo not shown) [NCGC00164584-03],0.1mMGluc_INS1E SecretionMod Act IC50/EC50,"INS-1E cells [7]; assay number 9, 0.1 mM glucose",> 33.33 µM
same,5mMGluc_INS1E SecretionMod IC50/EC50,"INS-1E cells [3]; assay number 8, 5 mM glucose",> 33.33 µM
c1cc(CN2CCCCC2)cc(OCCCNc2nc3ccccc3s2)c1 [NCGC00015957-06],0.1mMGluc_INS1E SecretionMod Act IC50/EC50,"INS-1E cells [7]; assay number 9, 0.1 mM glucose",> 33.33 µM
same,5mMGluc_INS1E SecretionMod IC50/EC50,"INS-1E cells [3]; assay number 8, 5 mM glucose",> 11.11 µM
CN(C)CCC[C@@]1(c2ccc(F)cc2)OCc2cc(C#N)ccc21.O=C(O)C(=O)O [NCGC00178555-02],0.1mMGluc_INS1E SecretionMod Act IC50/EC50,"INS-1E cells [7]; assay number 9, 0.1 mM glucose",> 33.33 µM
same,5mMGluc_INS1E SecretionMod IC50/EC50,"INS-1E cells [3]; assay number 8, 5 mM glucose",5.447 µM
Nc1c2c(nc3ccccc13)CCCC2 [NCGC00015054-12],0.1mMGluc_INS1E SecretionMod Act IC50/EC50,"INS-1E cells [7]; assay number 9, 0.1 mM glucose",> 33.33 µM
same,5mMGluc_INS1E SecretionMod IC50/EC50,"INS-1E cells [3]; assay number 8, 5 mM glucose",17.6112 µM
CN1CCc2cc(Cl)c(O)cc2[C@H]2c3ccccc3CC[C@@H]21 [NCGC00092362-02],0.1mMGluc_INS1E SecretionMod Act IC50/EC50,"INS-1E cells [7]; assay number 9, 0.1 mM glucose",> 33.33 µM
same,5mMGluc_INS1E SecretionMod IC50/EC50,"INS-1E cells [3]; assay number 8, 5 mM glucose",15.3649 µM
O=C(NN1CCCC1)NS(=O)(=O)c1ccc(Cl)cc1 [NCGC00182989-01],0.1mMGluc_INS1E SecretionMod Act IC50/EC50,INS-1E cells [7],> 33.33 µM
same,5mMGluc_INS1E SecretionMod IC50/EC50,INS-1E cells [3],14.8718 µM
NC(=NCCCCCCN=C(N)/N=C(\N)Nc1ccc(Cl)cc1)/N=C(\N)Nc1ccc(Cl)cc1 [NCGC00016246-09],"IC50/EC50, hKDR LANCE (assay number 32)",hKDR,> 20 µM
same,"IC50/EC50, Basal_Viability ATP Colo 320 (assay number 27)",Colo320,5.1631 µM
same,"IC50/EC50, Basal_Viability ATP SNU-C1 (assay number 30)",SNU-C1,0.4386 µM
same,"IC50/EC50, Basal_Viability ATP HCT116 (assay number 25)",HCT116,4.3853 µM
same,"IC50/EC50, Basal_Viability ATP HT-29 (assay number 28)",HT-29,3.7852 µM
same,"IC50/EC50, WntCondMedia_bCatenin C2C12 (assay number 5)",[1],> 20 µM
same,"IC50/EC50, Basal_Viability ATP SW480 (assay number 24)",SW480,5.6664 µM
same,"IC50/EC50, 5mMGluc_INS1E SecretionMod (assay number 8)",INS-1E cells [3]; 5 mM glucose,25.1792 µM
same,"IC50/EC50, hGSK3b LANCE (assay number 34)",hGSK3b,> 20 µM
same,"IC50/EC50, Basal_Viability ATP DLD-1 (assay number 23)",DLD-1,2.8031 µM
same,"IC50/EC50, mSTC-1 GLP1 Secretion (assay number 13)",STC-1 cell line; concentration response,10.3287 µM
same,"IC50/EC50, hJAK2 LANCE (assay number 33)",hJAK2,> 20 µM
same,"IC50/EC50, Hela CellCycMod PI 2N (assay number 14)",HeLa cells; 2N,> 10 µM
same,"IC50/EC50, Hela CellCycMod PI 4N (assay number 16)",HeLa cells; 4N,> 10 µM
same,"IC50/EC50, Hela CellCycMod PI Cell Number (assay number 18)",HeLa cells; Cell Number,6.7072 µM
same,"IC50/EC50, Hela CellCycMod PI MI (assay number 17)",HeLa cells; MI,> 10 µM
same,"IC50/EC50, VEGF_ADSC\ECFC Angio Hoechst NucArea (assay number 3)",[4],> 10 µM
same,"IC50/EC50, VEGF_ADSC\ECFC Angio CD31 TubeArea (assay number 2)",[5],1.3455 µM
same,"IC50/EC50, hp70S6K1 LANCE (assay number 31)",hp70S6K1 (RPS6KB1),> 20 µM
same,"IC50/EC50, hNCI-H716 GLP1 Secretion (assay number 12)",NCI-H716 cells; concentration response,26.2027 µM
same,"IC50/EC50, Basal_Viability ATP RKO (assay number 29)",RKO,4.5801 µM
same,"IC50/EC50, WntCondMedia_Alk Phos C2C12 (assay number 6)",[6],> 20 µM
same,"IC50/EC50, hFLT3 LANCE (assay number 35)",hFLT3,> 20 µM
